The CheMixHub viscosity set

Assay: xn = mol fraction of the nth substance listed

CCCCCCO + CC#N
viscosity [mPa·s], 101 kPa
Conditions | 298.15 K | 303.15 K | 308.15 K
x2 = 0.1095 | 3.187 | 2.576 | 2.165
x2 = 0.2173 | 2.358 | 2.078 | 1.839
x2 = 0.2885 | 1.966 | 1.831 | 1.573
x2 = 0.3844 | 1.55 | 1.386 | 1.233
x2 = 0.5121 | 1.109 | 1.004 | 0.913
x2 = 0.627 | 0.84 | 0.766 | 0.704
x2 = 0.7147 | 0.676 | 0.611 | 0.57
x2 = 0.7903 | 0.545 | 0.513 | 0.483
x2 = 0.8533 | 0.47 | 0.445 | 0.419
x2 = 0.9086 | 0.415 | 0.395 | 0.376
x2 = 0.9558 | 0.377 | 0.36 | 0.343

O=C1CCCCC1 + CCCCCCCCC
viscosity [mPa·s], 101.33 kPa
Conditions | x1 = 0.0999 | x1 = 0.1981 | x1 = 0.3012 | x1 = 0.4032 | x1 = 0.4987 | x1 = 0.6007 | x1 = 0.6942 | x1 = 0.7981 | x1 = 0.9006
298.15 K | 0.683 | 0.726 | 0.772 | 0.833 | 0.909 | 1.022 | 1.134 | 1.321 | 1.544
303.15 K | 0.639 | 0.675 | 0.718 | 0.775 | 0.842 | 0.936 | 1.043 | 1.21 | 1.41
308.15 K | 0.6 | 0.632 | 0.672 | 0.723 | 0.784 | 0.869 | 0.967 | 1.116 | 1.294

CCCCCCO + CCCCO
Conditions | viscosity [mPa·s]
294.55 K, 100 kPa, x2 = 0.31 | 3.994

CCOCC + CC(=O)O
viscosity [mPa·s], 101 kPa
Conditions | x2 = 0.124 | x2 = 0.2575 | x2 = 0.5649 | x2 = 0.6393 | x2 = 0.749 | x2 = 0.9116
293.15 K | 0.3184 | 0.3737 | 0.5451 | 0.6641 | – | 1.048
303.15 K | 0.2837 | 0.3354 | 0.483 | 0.5903 | 0.7376 | 0.8999
313.15 K | – | 0.3088 | – | 0.5215 | 0.6621 | 0.791
323.15 K | – | – | 0.3937 | 0.4665 | 0.5877 | 0.6835

CC(=O)CC(C)C + Cc1ccccc1
298.15 K, 101 kPa
Conditions | viscosity [mPa·s]
x1 = 0.1094 | 0.545
x1 = 0.207 | 0.541
x1 = 0.3183 | 0.539
x1 = 0.4196 | 0.538
x1 = 0.5357 | 0.537
x1 = 0.6441 | 0.544
x1 = 0.7653 | 0.539
x1 = 0.8774 | 0.541

CC(C)CC(C)(C)C + C1COCCO1
viscosity [mPa·s], 101 kPa
Conditions | x2 = 0.1085 | x2 = 0.2061 | x2 = 0.2943 | x2 = 0.3746 | x2 = 0.515 | x2 = 0.6337 | x2 = 0.6865 | x2 = 0.8237 | x2 = 0.9008
293.15 K | 0.5237 | 0.5426 | 0.5664 | 0.5961 | 0.6613 | 0.7446 | 0.7922 | 0.9589 | 1.083
298.15 K | 0.4947 | 0.5119 | 0.5334 | 0.561 | 0.6252 | 0.6968 | 0.7388 | 0.885 | 0.9979
303.15 K | 0.4683 | 0.4835 | 0.5036 | 0.5289 | 0.5825 | 0.6529 | 0.6909 | 0.8248 | 0.9282
308.15 K | 0.4438 | 0.4578 | 0.4761 | 0.4992 | 0.5485 | 0.6141 | 0.6485 | 0.7634 | 0.857
313.15 K | 0.4211 | 0.4352 | 0.4507 | 0.4727 | 0.5181 | 0.5788 | 0.6082 | 0.7242 | 0.7993

OCCOc1ccccc1 + CCCCCCO
viscosity [mPa·s], 101 kPa
Conditions | x2 = 0.1 | x2 = 0.201 | x2 = 0.301 | x2 = 0.401 | x2 = 0.501 | x2 = 0.601 | x2 = 0.701 | x2 = 0.801 | x2 = 0.9
303.15 K | 10.95 | 9.244 | 8.099 | 7.25 | 6.508 | 5.696 | 4.981 | 4.335 | 3.978
313.15 K | 7.906 | 7.005 | 6.239 | 5.548 | 4.764 | 4.151 | 3.605 | 3.222 | 2.981
323.15 K | 5.285 | 4.821 | 4.389 | 3.866 | 3.518 | 3.128 | 2.716 | 2.358 | 2.148

CCC(C)N (stereo not given) + Cc1ccccc1
303.15 K, 101 kPa
Conditions | viscosity [mPa·s]
x2 = 0.1499 | 0.4062
x2 = 0.216 | 0.4085
x2 = 0.2959 | 0.4124
x2 = 0.3889 | 0.419
x2 = 0.5124 | 0.4325
x2 = 0.613 | 0.4492
x2 = 0.7105 | 0.4679
x2 = 0.8708 | 0.4998

CC(=O)CC(C)C + CS(C)=O
303.15 K, 101 kPa
Conditions | viscosity [mPa·s]
x2 = 0.1332 | 0.6376
x2 = 0.257 | 0.7283
x2 = 0.3722 | 0.8149
x2 = 0.4798 | 0.9229
x2 = 0.5804 | 1.042
x2 = 0.6748 | 1.16
x2 = 0.7635 | 1.306

OCCOCCOCCOCCOCCOCCOCCO + O
viscosity [mPa·s], 100 kPa
Conditions | 293.15 K | 298.15 K | 303.15 K | 308.15 K | 313.15 K | 318.15 K | 323.15 K
x2 = 0.059 | 97.27 | 73.66 | 57.03 | 45.14 | 36.26 | 29.64 | 24.53
x2 = 0.088 | 93.78 | 71.34 | 53.69 | 42.57 | 34.29 | 28 | 23.21
x2 = 0.188 | 92.26 | 69.66 | 53.76 | 42.35 | 33.98 | 27.72 | 22.88
x2 = 0.221 | 92.02 | 69.89 | 53.68 | 42.29 | 33.97 | 27.67 | 22.86

C=C(C)[C@@H]1CC=C(C)CC1 + CCCCCC
298.15 K, 101.33 kPa
Conditions | viscosity [mPa·s]
x2 = 0.0279 | 0.825
x2 = 0.0568 | 0.806
x2 = 0.113 | 0.759
x2 = 0.2079 | 0.686
x2 = 0.2991 | 0.622
x2 = 0.4219 | 0.549
x2 = 0.5543 | 0.477
x2 = 0.6701 | 0.421
x2 = 0.7542 | 0.386
x2 = 0.8966 | 0.334
x2 = 0.9273 | 0.326
x2 = 0.972 | 0.305
